Earlier results on 1 compound are cited in patent US6923993B2, “Process of isolating extract from the Euphorbia obesa plant and methods for using the same” (priority 2001, dated 2005).

Data set [1] relates to HL-60 human promyelocytic leukemia cells. The following applies: in vitro.
A further data set has as its system skin of mice. To be noted: topically applied.
The next data set deals with myelocytic leukemia. To be noted: intravenous 1 mg; patients refractory to cytosine arabinoside, retinoic acid and other antileukemic drugs.
In data set [2] the test system is white blood cell (WBC) count. To be noted: intravenous; patients with low WBC after cytotoxic chemotherapy.
The conditions of data set [3]: doses of 0.5 to 1 mg.

Regarding `CCCCCCCCCCCCCC(=O)O[C@@H]1[C@@H](C)[C@@]2(O)[C@@H](C=C(CO)C[C@]3(O)C(=O)C(C)=C[C@@H]23)[C@H]2C(C)(C)[C@]12OC(C)=O` [TPA, 12-O-tetradecanoyl-13-phorbol acetate], the “differentiation and DNA synthesis of HL-60 cells” value in data set [1] is “stimulate differentiation and inhibit DNA synthesis”. Also, the “effect on mouse skin” value in the data set on skin of mice is given as “tumor promoter”. In addition, the “activity in myelocytic leukemia patients” value in the data set with myelocytic leukemia is recorded as “pharmacological activity”. For the same compound, the “WBC count and neutrophils in the blood” value in data set [2] was “increase in WBC count and neutrophilia”. Moreover, in data set [3], the toxicity in vivo entry is listed as “toxic effects”.
